Reference: publication PMC5998028, “Synthesis, antimicrobial activity and conformational analysis of the class IIa bacteriocin pediocin PA-1 and analogs thereof” (Scientific Reports, 2018)

Assays:
M. luteus ATCC 10240 = test: Antimicrobial assay; assay type: cell-based, Micrococcus luteus; conditions: at up to 100 µM
[1] = system: Bifidobacterium animalis ATCC 27536; test: MIC micro-dilution assay; assay type: cell-based; conditions: RCM, 37 °C, 18 h
[2] = system: Lactobacillus acidophilus ATCC 4356; test: MIC micro-dilution assay; assay type: cell-based; conditions: MRS, 37 °C, 18 h
[3] = system: Enterococcus hirae ATCC 10541; test: MIC micro-dilution assay; assay type: cell-based; conditions: BHI, 37 °C, 18 h
[4] = system: Staphylococcus aureus ATCC 6538; test: MIC micro-dilution assay; assay type: cell-based; conditions: MH, 37 °C, 18 h
[5] = system: Lactococcus lactis ATCC 19257; test: MIC micro-dilution assay; assay type: cell-based; conditions: MRS, 37 °C, 18 h
[6] = system: Escherichia coli ATCC 25922; test: MIC micro-dilution assay; assay type: cell-based; conditions: MH, 37 °C, 18 h
[7] = system: Staphylococcus aureus ATCC 25923; test: MIC micro-dilution assay; assay type: cell-based; conditions: MH, 37 °C, 18 h
C. perfringens = assay type: cell-based, Clostridium perfringens; conditions: radial diffusion assays, RCM
[8] = system: Clostridium tyrobutiricum ATCC 25755; test: MIC micro-dilution assay; assay type: cell-based, Clostridium tyrobutyricum; conditions: RCM, 37 °C, 18 h
[9] = system: Staphylococcus aureus ATCC 29213; test: MIC micro-dilution assay; assay type: cell-based; conditions: MH, 37 °C, 18 h
[10] = system: Streptococcus thermophilus RBL 18 FYE 41; test: MIC micro-dilution assay; assay type: cell-based; conditions: MH, 37 °C, 18 h
[11] = system: Enteroccocus faecalis ATCC 27275; test: MIC micro-dilution assay; assay type: cell-based, Enterococcus faecalis; conditions: BHI, 37 °C, 18 h
[12] = system: Bacillus coagulans ATCC 7050; test: MIC micro-dilution assay; assay type: cell-based; conditions: MH, 37 °C, 18 h
[13] = system: Bacillus subtilis ATCC 6633; test: MIC micro-dilution assay; assay type: cell-based; conditions: MH, 37 °C, 18 h
[14] = system: Bacillus cereus LSPQ 2872; test: MIC micro-dilution assay; assay type: cell-based; conditions: MH, 37 °C, 18 h
[15] = system: L. ivanovii HPB28, L. monocytogenes LSD530, L. monocytogenes ATCC 19111; conditions: L. ivanovii HPB28, L. monocytogenes LSD530 and ATCC 19111; micro-dilution, 37 °C, 18 h
L. ivanovii HPB28 = conditions: micro-dilution, twofold serial dilutions, 37 °C, 18 h, absorbance 595 nm, means of two independent experiments in duplicate
[16] = system: L. monocytogenes ATCC 19111; conditions: micro-dilution, twofold serial dilutions, 37 °C, 18 h, absorbance 595 nm, means of two independent experiments in duplicate
[17] = system: L. monocytogenes ATCC 19111; conditions: L. monocytogenes ATCC 19111, soft agar TSBYE; 75 µL of 1 mg/mL peptide (or UL5 culture supernatant) per well; 37 °C, 18 h
P. acidilactici UL5 = test: MIC micro-dilution assay; assay type: cell-based, Pediococcus acidilactici; conditions: P. acidilactici UL5 (pediocin producer, immune), 37 °C, 18 h, absorbance 595 nm, means of two independent experiments in duplicate
L. monocytogenes LSD530 = conditions: micro-dilution, twofold serial dilutions, 37 °C, 18 h, absorbance 595 nm, means of two independent experiments in duplicate

CC[C@H](C)[C@@H]1NC(=O)[C@@H](NC(=O)[C@@H](NC(=O)[C@@H](NC(=O)[C@H](C)NC(=O)[C@H](CCCCN)NC(=O)CNC(=O)[C@H](Cc2c[nH]c3ccccc23)NC(=O)[C@H](CC(=O)O)NC(=O)[C@@H](NC(=O)[C@H](CO)NC(=O)[C@@H]2CSSC[C@H](NC(=O)[C@@H](NC(=O)[C@@H](NC(=O)CNC(=O)[C@H](CC(N)=O)NC(=O)CNC(=O)[C@H](Cc3ccc(O)cc3)NC(=O)[C@H](Cc3ccc(O)cc3)NC(=O)[C@@H](N)CCCCN)C(C)C)[C@@H](C)O)C(=O)NCC(=O)N[C@@H](CCCCN)C(=O)N[C@@H](Cc3c[nH]cn3)C(=O)N[C@@H](CO)C(=O)N2)C(C)C)[C@@H](C)O)[C@@H](C)O)CSSC[C@@H](C(=O)O)NC(=O)[C@H](CCCCN)NC(=O)[C@H](Cc2c[nH]cn2)NC(=O)[C@H](CC(N)=O)NC(=O)CNC(=O)[C@H](CCC(N)=O)NC(=O)[C@H](Cc2c[nH]cn2)NC(=O)CNC(=O)CNC(=O)[C@H]([C@@H](C)O)NC(=O)[C@H](C)NC(=O)[C@H](Cc2c[nH]c3ccccc23)NC(=O)[C@H](C)NC(=O)[C@H](CCSC)NC(=O)[C@H](C)NC(=O)CNC(=O)[C@H](CC(N)=O)NC(=O)[C@H](CC(N)=O)NC(=O)[C@H]([C@@H](C)CC)NC1=O [3c, pediocin PA-1]
activity against M. luteus ATCC 10240 (M. luteus ATCC 10240): no activity

CC[C@H](C)[C@H](NC(=O)[C@H](CS)NC(=O)[C@@H](NC(=O)[C@@H](NC(=O)[C@H](C)NC(=O)[C@H](CCCCN)NC(=O)CNC(=O)[C@H](Cc1c[nH]c2ccccc12)NC(=O)[C@H](CC(=O)O)NC(=O)[C@@H](NC(=O)[C@H](CO)NC(=O)[C@H](CS)NC(=O)[C@H](CO)NC(=O)[C@H](Cc1c[nH]cn1)NC(=O)[C@H](CCCCN)NC(=O)CNC(=O)[C@H](CS)NC(=O)[C@@H](NC(=O)[C@@H](NC(=O)CNC(=O)[C@H](CC(N)=O)NC(=O)CNC(=O)[C@H](Cc1ccc(O)cc1)NC(=O)[C@H](Cc1ccc(O)cc1)NC(=O)[C@@H](N)CCCCN)C(C)C)[C@@H](C)O)C(C)C)[C@@H](C)O)[C@@H](C)O)C(=O)N[C@H](C(=O)N[C@@H](CC(N)=O)C(=O)N[C@@H](CC(N)=O)C(=O)NCC(=O)N[C@@H](C)C(=O)N[C@@H](CC(C)C)C(=O)N[C@@H](C)C(=O)N[C@@H](Cc1c[nH]c2ccccc12)C(=O)N[C@@H](C)C(=O)N[C@H](C(=O)NCC(=O)NCC(=O)N[C@@H](Cc1c[nH]cn1)C(=O)N[C@@H](CCC(N)=O)C(=O)NCC(=O)N[C@@H](CC(N)=O)C(=O)N[C@@H](Cc1c[nH]cn1)C(=O)N[C@@H](CCCCN)C(=O)N[C@@H](CS)C(=O)O)[C@@H](C)O)[C@@H](C)CC [compound 4]
MIC [1]: n.a. (no activity detected at concentrations up to 100 µM)
MIC [2]: n.a. (no activity detected at concentrations up to 100 µM)
MIC [3]: n.a. (no activity detected at concentrations up to 100 µM)
MIC [4]: n.a. (no activity detected at concentrations up to 100 µM)
MIC [5]: n.a. (no activity detected at concentrations up to 100 µM)
MIC [6]: n.a. (no activity detected at concentrations up to 100 µM)
MIC [7]: n.a. (no activity detected at concentrations up to 100 µM)
inhibition diameters against C. perfringens, range over two strains (C. perfringens): 22–25 mm
MIC [8]: n.a. (no activity detected at concentrations up to 100 µM)
MIC [9]: n.a. (no activity detected at concentrations up to 100 µM)
MIC [10]: n.a. (no activity detected at concentrations up to 100 µM)
MIC [11]: n.a. (no activity detected at concentrations up to 100 µM)
MIC [12]: n.a. (no activity detected at concentrations up to 100 µM)
MIC [13]: n.a. (no activity detected at concentrations up to 100 µM)
MIC [14]: n.a. (no activity detected at concentrations up to 100 µM)

KYYGNGVTAGKHSASVDWGKATTAIINNGAMAWATGGHQGNHKA [compound 6]
MIC, range over the Listeria target strains [15]: completely inactive
Minimal inhibitory concentration (L. ivanovii HPB28): n.a.^a (no activity detected at concentrations up to 100 µM)
Minimal inhibitory concentration [16]: n.a. (no activity detected at concentrations up to 100 µM)
Inhibition zone diameter [17]: no activity
Minimal inhibitory concentration (P. acidilactici UL5): n.a. (no activity detected at concentrations up to 100 µM)
Minimal inhibitory concentration (L. monocytogenes LSD530): n.a. (no activity detected at concentrations up to 100 µM)
